Results taken from US20040087571A1, “Methods of using CCR1 antagonists as immunomodulatory agents” (Pfizer Inc, priority 2002, published 2004).

Row | Compound | melting point [°C]
1 | CC(C)CC[C@H](C[C@H](O)[C@H](Cc1cscn1)NC(=O)c1cnc2ccccc2n1)C(N)=O [Example 178, Quinoxaline-2-carboxylic acid (4(R)-carbamoyl-2(S)-hydroxy-7-methyl-1(S)-thiazol-4-ylmethyl-octyl)-amide] | 195 to 196
2 | CC1(C)CC([C@H](C[C@H](O)[C@H](Cc2ccccc2)NC(=O)c2cnc3ccccc3n2)C(N)=O)CC(C)(C)C1 [Example 179, Quinoxaline-2-carboxylic acid [1(S)-benzyl-4(S)-carbamoyl-2(S)-hydroxy-4-(3,3,5,5-tetramethyl-cyclohexyl)-butyl]-amide] | 188 to 190
3 | NC(=O)[C@@H](C[C@H](O)[C@H](Cc1ccccc1)NC(=O)c1cnc2ccccc2n1)C1CCCCCC1 [Example 181, Quinoxaline-2-carboxylic acid (1(S)-benzyl-4(S)-carbamoyl-4-cycloheptyl-2(S)-hydroxy-butyl)-amide] | 216 to 217
4 | NC(=O)[C@@H](C[C@H](O)[C@H](Cc1ccccc1)NC(=O)c1cnc2ccccc2n1)C1Cc2ccccc2C1 [Example 192, Quinoxaline-2-carboxylic acid (1(S)-benzyl-4(S)-carbamoyl-2(S)-hydroxy-4-indan-2-yl-butyl)-amide] | 190 to 191
5 | NC(=O)[C@H](Cc1ccc(OC(F)(F)F)cc1)C[C@H](O)[C@H](Cc1ccccc1)NC(=O)c1cnc2ccccc2n1 [Example 193, Quinoxaline-2-carboxylic acid [1(S)-benzyl-4(R)-carbamoyl-2(S)-hydroxy-5-(4-trifluoromethoxy-phenyl)-pentyl]-amide] | 184 to 187
6 | NC(=O)[C@H](Cc1ccc(F)cc1)C[C@H](O)[C@H](Cc1ccccc1)NC(=O)c1cnc2ccccc2n1 [Example 194, Quinoxaline-2-carboxylic acid [1(S)-benzyl-4(R)-carbamoyl-5-(4-fluoro-phenyl)-2(S)-hydroxy-pentyl]-amide] | 164 to 166
7 | CC(C)(F)CC[C@H](C[C@H](O)[C@H](Cc1ccccc1)NC(=O)c1cnc2ccccc2n1)C(=O)NCc1cccnc1 [Example 199, Quinoxaline-2-carboxylic acid {1(S)-benzyl-7-fluoro-2(S)-hydroxy-7-methyl-4(R)-[(pyridin-3-ylmethyl)-carbamoyl]-octyl}-amide] | 188 to 191
8 | CCC(CC)[C@H](C[C@H](O)[C@H](Cc1ccccc1)NC(=O)c1cnc2ccccc2n1)C(N)=O [Example 203, Quinoxaline-2-carboxylic acid (1(S)-benzyl-4(S)-carbamoyl-5-ethyl-2(S)-hydroxy-heptyl)-amide] | 215 to 218
9 | NC(=O)[C@@H](C[C@H](O)[C@H](Cc1ccccc1)NC(=O)c1cnc2ccccc2n1)C1CCOCC1 [Example 204, Quinoxaline-2-carboxylic acid [1(S)-benzyl-4(S)-carbamoyl-2(S)-hydroxy-4-(tetrahydro-pyran-4-yl)-butyl]-amide] | 151 to 154
10 | CC(C)(F)CC[C@H](C[C@H](O)[C@H](Cc1ccccc1)NC(=O)c1cnc2ccccc2n1)C(=O)NCCc1ccccn1 [Example 205, Quinoxaline-2-carboxylic acid [1(S)-benzyl-7-fluoro-2(S)-hydroxy-7-methyl-4(R)-(2-pyridin-2-yl-ethylcarbamoyl)-octyl]-amide] | 155 to 156
11 | COc1ccc(CNC(=O)[C@H](CCC(C)(C)F)C[C@H](O)[C@H](Cc2ccccc2)NC(=O)c2cnc3ccccc3n2)cc1OC [Example 206, Quinoxaline-2-carboxylic acid [1(S)-benzyl-4(R)-(3,4-dimethoxy-benzylcarbamoyl)-7-fluoro-2(S)-hydroxy-7-methyl-octyl]-amide] | 162 to 164
12 | CC1CC(C)CC([C@@H](C[C@H](O)[C@H](Cc2ccccc2)NC(=O)c2cnc3ccccc3n2)C(N)=O)C1 (stereo partly drawn) [Example 210, Quinoxaline-2-carboxylic acid [1(S)-benzyl-4(R)-carbamoyl-4-(3,5-dimethyl-cyclohexyl)-2(S)-hydroxy-butyl]-amide] | 221 to 222

The remaining lines, values ahead:

Row | melting point [°C] | Compound
13 | 138 to 140 | CC(C)(F)CC[C@H](C[C@H](O)[C@H](Cc1ccccc1)NC(=O)c1cnc2ccccc2n1)C(=O)NCc1ccccn1 [Example 211, Quinoxaline-2-carboxylic acid {1(S)-benzyl-7-fluoro-2(S)-hydroxy-7-methyl-4(R)-[(pyridin-2-ylmethyl)-carbamoyl]-octyl}-amide]
14 | 138 to 140 | CC(C)(F)CC[C@H](C[C@H](O)[C@H](Cc1ccccc1)NC(=O)c1cnc2ccccc2n1)C(=O)NCCc1ccc(O)cc1 [Example 212, Quinoxaline-2-carboxylic acid {1(S)-benzyl-7-fluoro-2(S)-hydroxy-4(R)-[2-(4-hydroxy-phenyl)-ethylcarbamoyl]-7-methyl-octyl}-amide]
15 | 174 to 175 | CC(C)(F)CC[C@H](C[C@H](O)[C@H](Cc1ccccc1)NC(=O)c1cnc2ccccc2n1)C(=O)NCc1cccs1 [Example 213, Quinoxaline-2-carboxylic acid {1(S)-benzyl-7-fluoro-2(S)-hydroxy-7-methyl-4(R)-[(thiophen-2-ylmethyl)-carbamoyl]-octyl}-amide]
16 | 207 to 210 | CC(C)(F)CC[C@H](C[C@H](O)[C@H](Cc1ccccc1)NC(=O)c1cnc2ccccc2n1)C(=O)NCCc1ccc(S(N)(=O)=O)cc1 [Example 216, Quinoxaline-2-carboxylic acid {1(S)-benzyl-7-fluoro-2(S)-hydroxy-7-methyl-4(R)-[2-(4-sulfamoyl-phenyl)-ethylcarbamoyl]-octyl}-amide]
17 | 100 to 104 | CC(C)(F)CC[C@H](C[C@H](O)[C@H](Cc1ccccc1)NC(=O)c1cnc2ccccc2n1)C(=O)NCc1ccncc1 [Example 217, Quinoxaline-2-carboxylic acid {1(S)-benzyl-7-fluoro-2(S)-hydroxy-7-methyl-4(R)-[(pyridin-4-ylmethyl)-carbamoyl]-octyl}-amide]
18 | 78 to 79 | CCSCCNC(=O)[C@H](CCC(C)(C)F)C[C@H](O)[C@H](Cc1ccccc1)NC(=O)c1cnc2ccccc2n1 [Example 218, Quinoxaline-2-carboxylic acid [1(S)-benzyl-4(R)-(2-ethylsulfanyl-ethylcarbamoyl)-7-fluoro-2(S)-hydroxy-7-methyl-octyl]-amide]
19 | 154 to 155 | CC(C)(F)CC[C@H](C[C@H](O)[C@H](Cc1ccccc1)NC(=O)c1cnc2ccccc2n1)C(=O)NCCc1cccnc1 [Example 220, Quinoxaline-2-carboxylic acid [1(S)-benzyl-7-fluoro-2(S)-hydroxy-7-methyl-4(R)-(2-pyridin-3-yl-ethylcarbamoyl)-octyl]-amide]
20 | 78 to 80 | CC(C)(F)CC[C@H](C[C@H](O)[C@H](Cc1ccccc1)NC(=O)c1cnc2ccccc2n1)C(=O)NCCc1ccncc1 [Example 221, Quinoxaline-2-carboxylic acid [1(S)-benzyl-7-fluoro-2(S)-hydroxy-7-methyl-4(R)-(2-pyridin-4-yl-ethylcarbamoyl)-octyl]-amide]
21 | 135 | COc1ccccc1CNC(=O)[C@H](CCC(C)(C)F)C[C@H](O)[C@H](Cc1ccccc1)NC(=O)c1cnc2ccccc2n1 [Example 227, Quinoxaline-2-carboxylic acid [1(S)-benzyl-7-fluoro-2(S)-hydroxy-4(R)-(2-methoxy-benzylcarbamoyl)-7-methyl-octyl]-amide]
